From patent US9834514B2, “Antibiotic sensitivity-restoring and photosensitive agents” (New Mexico Tech Research Foundation, priority 2015, dated 2017)
Values after ≈ are worked out from the molar mass of the structure shown. Like-named read-outs stand apart in the source and are kept apart here.

Assays:
[1] = system: MRSA; assay: Minimum bactericidal concentration (MBC) with and without white light; assay type: cell-based, S. aureus; settings: Staphylococcus aureus, light or radiation study
Method: The bacterial media was inoculated with bacteria and incubated overnight. The bacterial cultures were diluted to 5×10^8 CFU/mL using a McFarland latex turbidity standard (0.5). Compound 1 was diluted with sterile DMSO, which was added to the cell suspension in glass culture tubes. The cells were then incubated for 30 minutes at 37° C. on a rotary shaking incubator at 150 rpm. 500 μL of the treated cell suspension was added to a well on a sterile ceramic drop plate. Non-coherent white light from a Lumacare™ LC-122 unit was used to irradiate the samples. The end of the light probe was placed 3 cm above the sample well, perpendicular to the surface of the sample, and light was applied for 2 minutes (15 seconds light, 15 seconds dark). 200 μL of the irradiated sample was transferred to a 96-well plastic microtiter plate and five ten-fold dilutions were made in the media. 10 μL of each dilution was dripped onto an agar media plate and was allowed to streak down the plate by tilting the plate down. The agar plates were incubated at 37° C. overnight and colony counts were performed to calculate the CFU/mL.
TABLE 14 details the MBC values of compounds 1-6 against MRSA with and without irradiation with white light. Irradiation involved treatment with a LumaCare™ light source at 3 cm from media for 1 min.

[2] = system: S. mutans (Ward's 85W 2357); assay: MIC against S. mutans; assay type: cell-based; settings: Streptococcus mutans; compound alone
From the text: The error bars in FIG. 13 represent the variations between three replicate determinations.

[3] = system: WI-38 (human embryonic lung normal); assay: Light-activated killing of cell lines (IC50 with/without light); assay type: cell-based
Method: (§1) TABLE 15 depicts the IC50 of compounds in the presence or absence of light for human cell lines. The cell lines used were HeLa (human cervical adenocarcinoma), U-87 MG (human brain gliobastoma), MES-SA (human uterine sarcoma), MES-SA/D×5 (human uterine sarcoma grown in presence of doxorubicin), NCI-H441 (human lung papillary adenocarcinoma), A549 (human lung carcinoma), WI-38 (human embryonic lung normal), MCF7 (human breast adenocarcinoma), SW1088 (human brain astrocytoma), B16F10 (mouse skin melanoma), NIH-3T3 (mouse fibroblast), and Jurkat (human lymphoblastoma). “1-Sol” in TABLE 15 was generated by dissolving compound 1 and potassium hydroxide at a 1:1 ratio in a DMSO/water solution. The cells were irradiated with continuous white light using a LumaCare™ light source for 2 minutes at a distance of 6.5 cm from the cells.

[4] = system: U-87 MG (human brain gliobastoma); assay: as above; assay type: cell-based
Method: as §1

[5] = system: MCF7A; assay: as above; assay type: cell-based
Method: as §1

[6] = system: MCF7 (human breast adenocarcinoma); assay: as above; assay type: cell-based
Method: as §1

[7] = system: B16F10 (mouse skin melanoma); assay: as above; assay type: cell-based
Method: as §1

[8] = system: A549 (human lung carcinoma); assay: as above; assay type: cell-based
Method: as §1

[9] = system: efflux pumps of MRSA; assay: Fluorescent competition assay of compound 1 versus INF-55 and reserpine; assay type: binding; settings: compound 1 at 5 μM
Method: INF-55 and reserpine, NorA EPIs, were used to compete with compound 1 for binding sites on MRSA. Since compound 1 is highly fluorescent, binding could be assessed by measuring the fluorescence at excitation wavelengths of 345 nm, 380 nm, 407 nm, and an emission wavelength of 508 nm. Fluorescent readings were taken every minute for 30 minutes at a lamp energy of 20,000 CW. MRSA cells (about 10^8 CFU/mL) were pelleted at 7500 rpm and resuspended in 1×PBS. The MRSA cells were then pretreated with the appropriate EPI at varying concentrations and incubated for 30 minutes at 37° C. at 150 rpm on a rotary shaker.
INF-55 (FIG. 2) and reserpine (FIG. 3) were added at 1 μM, 10 μM, 50 μM, and 100 μM. After incubation with the appropriate EPI, compound 1 was added at 5 μM and the samples were incubated for 10 minutes. The samples were then placed in a fluorescent plate reader for analysis. The controls used were as follows: 1×PBS, compound 1 (5 μM) in 1×PBS, each respective concentration of the EPI in 1×PBS, compound 1 (5 μM) added to MRSA cells, and each respective EPI added to MRSA cells. The instrument baseline fluorescence drift was corrected by subtracting the fluorescence measured at each time point for the 1×PBS control sample. The error bars represent data from three independent measurements.

[10] = system: E. coli; assay: Resensitization to antibiotics (log reduction, TABLE 29); assay type: cell-based; settings: compound 1 μM
[11] = system: MRSA; assay: Checkerboard assay (FICI); assay type: cell-based, S. aureus
Method: Another method for determining synergy is a checkerboard assay. A checkerboard assay is performed whereby one of the test compounds is serially diluted horizontally across a plate, while the other test compound is serially diluted vertically down the plate. The perpendicular serial dilutions result in combinations of the compounds that range in concentrations from the highest to the lowest of each compound added. In the present study, the checkerboard assay method was adjusted by serially diluting one of the test compounds horizontally and adding the second drug to each well at a concentration of ¼ MIC. The 24-well microtiter plate was then incubated at 37° C. for 18-24 hours on a rotary shaker incubator at 150 rpm. After incubation, MTT reagent was added to each well at a 10% sample volume. Synergy was determined on the lowest concentration of the combined drugs, which produced no purple coloring. Calculation of synergy was determined by the Fractional Inhibitory Concentration Index (FICI): FICI=([Drug 1]Synergy/[Drug1]MIC)+([Drug 2]Synergy/[Drug 2]MIC). FICI≦0.5 is an indication of synergy.
TABLE 17 details the obtained FICI values for compound 1 in combination with varying antibiotics against MRSA, A. baumannii, and E. coli.

[12] = 2 min, white light 2 minutes, read-out: Compound + light IC50
[13] = no light, read-out: Compound IC50

Clc1ccc(/C=C/c2[nH]c3ccccc3c2/C=C/c2ccc(Cl)cc2)cc1 [Compound 1]
MBC ([1]; 1 min, LumaCare light source at 3 cm from media for 1 min, read-out: MBC with irradiation): 1 µM (≈ 0.39 µg/mL) | MBC ([1]; no irradiation, read-out: MBC in the dark): 200 µM (≈ 78.1 µg/mL) | MIC [2]: 50 to 100 µM (≈ 19.5 to 39 µg/mL) | IC50 [3, 12]: 330 ± 80 nM | IC50 [3, 13]: 63400 ± 5480 nM | IC50 ([4]; 2 min, U-87 MG (spheroids), white light 2 minutes, read-out: Compound + light IC50): 450 nM | IC50 [4, 12]: 560 ± 20 nM | IC50 ([4]; U-87 MG (spheroids), no light, read-out: Compound IC50): > 40000 nM | IC50 [4, 13]: 44600 ± 3680 nM | IC50 [5, 12]: 400 ± 10 nM | IC50 [5, 13]: 24500 ± 200 nM | IC50 [6, 12]: 330 ± 40 nM | IC50 [6, 13]: 17800 ± 220 nM | IC50 ([7]; B16-F10, 2 min, white light 2 minutes, read-out: Compound + light IC50): 410 ± 220 nM | IC50 ([7]; B16-F10, no light, read-out: Compound IC50): 18700 ± 990 nM | IC50 [8, 12]: 840 ± 320 nM | IC50 [8, 13]: 17400 ± 1520 nM | competition with INF-55 for binding (fluorescence) ([9]; INF-55 1-100 μM, FIG. 2): able to compete with INF-55 for binding to the efflux pumps of MRSA | competition with reserpine for binding (fluorescence) ([9]; reserpine 1-100 μM, FIG. 3): able to compete with reserpine for binding to the efflux pumps of MRSA | Log Reduction ([10]; PMB (0.1 μg/mL)): 4 | Log Reduction ([10]; PMB (0.1 μg/mL) + Light (2 min)): 7 | FIC Index ([11]; with Amoxicillin): 0.3 | FIC Index ([11]; with Ampicillin): 0.13 | FIC Index ([11]; with Dicloxicillin): 0.04 | FIC Index ([11]; with Norfloxacin): 0.3 | FIC Index ([11]; with Tetracycline): 0.4
